Some results are limits rather than exact numbers.

The Ki is the dissociation constant of the complex between target and ligand, obtained from inhibition or displacement. The low end stands for a stronger hold on the target, the high end for a looser hold on the target.

Experiment [1] addresses T1, Alpha-1 adrenergic receptor (Mus musculus, UniProt P97714+P97717+P97718).
T1 sequence (P97714 whole entry): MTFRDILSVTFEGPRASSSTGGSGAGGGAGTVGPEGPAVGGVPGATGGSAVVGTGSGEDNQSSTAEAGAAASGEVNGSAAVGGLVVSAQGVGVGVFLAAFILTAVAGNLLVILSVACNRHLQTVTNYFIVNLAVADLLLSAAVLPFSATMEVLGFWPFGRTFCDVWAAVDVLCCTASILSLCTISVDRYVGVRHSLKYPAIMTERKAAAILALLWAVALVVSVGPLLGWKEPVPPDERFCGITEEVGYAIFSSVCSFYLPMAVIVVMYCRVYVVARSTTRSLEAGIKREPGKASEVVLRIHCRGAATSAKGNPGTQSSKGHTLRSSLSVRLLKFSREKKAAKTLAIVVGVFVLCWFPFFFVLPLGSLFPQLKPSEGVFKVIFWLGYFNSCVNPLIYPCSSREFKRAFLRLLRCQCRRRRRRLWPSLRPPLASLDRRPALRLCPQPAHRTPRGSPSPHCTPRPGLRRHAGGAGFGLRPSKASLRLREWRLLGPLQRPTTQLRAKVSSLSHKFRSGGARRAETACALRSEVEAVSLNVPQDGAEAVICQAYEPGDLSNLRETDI
T1 sequence (P97717 whole entry): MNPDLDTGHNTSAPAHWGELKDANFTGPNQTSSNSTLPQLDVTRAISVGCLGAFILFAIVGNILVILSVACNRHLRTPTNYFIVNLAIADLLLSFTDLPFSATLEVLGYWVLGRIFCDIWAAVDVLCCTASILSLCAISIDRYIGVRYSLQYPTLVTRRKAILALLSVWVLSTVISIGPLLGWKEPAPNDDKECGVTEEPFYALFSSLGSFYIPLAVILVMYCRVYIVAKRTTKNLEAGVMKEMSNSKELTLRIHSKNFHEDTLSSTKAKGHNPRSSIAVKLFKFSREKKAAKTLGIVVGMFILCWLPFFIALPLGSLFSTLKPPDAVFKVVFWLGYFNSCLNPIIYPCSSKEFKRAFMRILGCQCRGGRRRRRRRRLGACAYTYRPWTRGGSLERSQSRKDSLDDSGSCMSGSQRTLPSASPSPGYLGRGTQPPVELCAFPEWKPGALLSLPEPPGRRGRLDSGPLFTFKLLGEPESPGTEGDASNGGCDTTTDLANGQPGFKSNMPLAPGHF
T1 sequence (P97718 whole entry): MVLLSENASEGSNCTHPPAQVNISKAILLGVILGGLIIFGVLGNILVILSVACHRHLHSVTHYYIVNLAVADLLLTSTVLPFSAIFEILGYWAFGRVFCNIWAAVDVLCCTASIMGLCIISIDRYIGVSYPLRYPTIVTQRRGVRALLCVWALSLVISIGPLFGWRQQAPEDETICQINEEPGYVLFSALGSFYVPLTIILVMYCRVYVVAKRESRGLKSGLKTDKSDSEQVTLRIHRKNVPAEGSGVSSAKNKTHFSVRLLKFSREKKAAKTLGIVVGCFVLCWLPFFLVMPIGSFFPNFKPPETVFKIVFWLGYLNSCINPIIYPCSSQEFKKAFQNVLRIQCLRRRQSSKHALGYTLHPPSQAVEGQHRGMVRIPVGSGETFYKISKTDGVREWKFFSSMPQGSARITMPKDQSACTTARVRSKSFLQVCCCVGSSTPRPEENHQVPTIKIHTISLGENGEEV
Nature of the experiment: Binding affinity towards Alpha-1 adrenergic receptor. The format is protein assay.

In another experiment the target is D(2) dopamine receptor (Mus musculus, UniProt P61168). The experiment in a line: Binding affinity towards Dopamine receptor D2.
In experiment [2] the target is T2, 5-hydroxytryptamine receptor 1A (Mus musculus, UniProt Q64264).
T2 sequence (Q64264 whole entry): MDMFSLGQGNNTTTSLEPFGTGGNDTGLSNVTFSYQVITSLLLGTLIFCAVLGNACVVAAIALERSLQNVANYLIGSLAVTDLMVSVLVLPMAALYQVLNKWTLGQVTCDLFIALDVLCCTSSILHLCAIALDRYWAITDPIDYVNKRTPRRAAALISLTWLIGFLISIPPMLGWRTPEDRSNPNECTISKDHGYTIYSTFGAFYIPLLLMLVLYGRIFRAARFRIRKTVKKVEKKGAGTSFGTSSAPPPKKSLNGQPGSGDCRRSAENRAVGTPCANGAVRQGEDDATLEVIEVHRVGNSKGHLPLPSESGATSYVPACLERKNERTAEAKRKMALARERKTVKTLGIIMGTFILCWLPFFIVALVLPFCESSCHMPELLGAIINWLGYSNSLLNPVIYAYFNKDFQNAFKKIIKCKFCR
The experiment in a line: Binding affinity towards 5-HT1A receptor.

Sequence of D(2) dopamine receptor (P61168 whole entry): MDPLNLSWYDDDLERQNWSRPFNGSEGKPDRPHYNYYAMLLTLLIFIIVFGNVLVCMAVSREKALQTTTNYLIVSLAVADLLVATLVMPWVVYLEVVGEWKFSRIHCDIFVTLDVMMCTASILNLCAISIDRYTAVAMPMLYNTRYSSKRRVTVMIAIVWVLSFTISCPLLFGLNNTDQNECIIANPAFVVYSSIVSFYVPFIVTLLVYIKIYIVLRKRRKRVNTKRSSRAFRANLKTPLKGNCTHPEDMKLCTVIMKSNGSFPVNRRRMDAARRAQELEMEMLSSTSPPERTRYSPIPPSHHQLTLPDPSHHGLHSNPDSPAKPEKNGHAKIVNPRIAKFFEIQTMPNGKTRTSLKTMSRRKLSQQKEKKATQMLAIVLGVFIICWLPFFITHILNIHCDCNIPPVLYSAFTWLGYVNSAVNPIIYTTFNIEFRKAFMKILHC

Consider `CCS(=O)(=O)Nc1cccc(N2CCN(CCCCN3C(=O)C4CCCN4C3=O)CC2)c1` (stereo not drawn), for which the Ki in experiment [1] was more than 1000 nM; on D(2) dopamine receptor, 22 nM; in experiment [2], 27 nM.

The values are drawn from ChEMBL document CHEMBL1131751, “Design and synthesis of 2-[4-[4-(m-(ethylsulfonamido)-phenyl) piperazin-1-yl]butyl]-1,3-dioxoperhydropyrrolo[1,2-c]imidazole (EF-7412) using neural networks. A selective derivative with mixed 5-HT1A/D2 antagonist properties” (Bioorg Med Chem Lett, 1999).
